The source of these data is patent US20050069522A1, “Combination pharmaceutical agents as inhibitors of HCV replication” (priority 2002, published 2005).

One may read the EC50 as the midpoint of the concentration-response curve.

Where only a bound is given, the exact number is not on record here.

For this test, the system named is HCV replicon (HCV 1b-377-neo replicon cells). Description: HCV replicon cell line FRET assay. The format is cell-based. The note with it: Hepatitis C virus; HCV replicon cell line, FRET assay; read-out: Replicon Inhibition Range EC50.

In the case of `O=C(Nc1ccc(C2S/C(=N\c3cccc(Cl)c3)N(Cc3ccco3)C2=O)cc1)[C@@H]1CCCN1C(=O)OCc1ccccc1` (stereo partly drawn) [Compound 53], the EC50 lay in the range of 0.1 to 1 µM.

Take `C[C@H](NC(=O)OCc1ccccc1)C(=O)Nc1ccc(C2S/C(=N\c3ccc(N4CCOCC4)cc3)N(Cc3ccco3)C2=O)cc1` (stereo partly drawn) [Compound 10]: the EC50 was less than 0.1 µM.

Turning to `CN1C(=O)C(c2ccc(NC(=O)[C@@H]3CCCN3C(=O)OCc3ccccc3)cc2)S/C1=N\Cc1ccccn1` (stereo partly drawn) [Compound 87], the concentration giving a half-maximal response (EC50) lay in the range of 0.1 to 1 µM.

On to `O=C(Nc1ccc(C2S/C(=N\c3ccc(N4CCOCC4)cc3)N(Cc3ccccn3)C2=O)cc1)[C@@H]1CCCN1C(=O)Cc1c(Cl)cccc1Cl` (stereo partly drawn) [Compound 104], for which the EC50 is less than 0.1 µM.

As for `O=C(Nc1ccc(C2S/C(=N\c3ccc(N4CCOCC4)cc3)N(c3ccccn3)C2=O)cc1)[C@@H]1CCCN1C(=O)OCc1ccccc1` (stereo partly drawn) [Compound 94], the EC50 was less than 0.1 µM.

`C[C@H](NC(=O)NCc1ccccc1)C(=O)Nc1ccc(C2S/C(=N\c3cccc(F)c3)N(Cc3ccco3)C2=O)cc1` (stereo partly drawn) [Compound 133]: the EC50 lay within 0.1 to 1 µM.

Turning to `C[C@H](NC(=O)OCc1ccccc1)C(=O)Nc1ccc(C2S/C(=N\c3ccc(F)c(Cl)c3)N(Cc3ccco3)C2=O)cc1` (stereo partly drawn) [Compound 52], the EC50 is 1 to 5 µM.

`Cc1cnc(CN2C(=O)C(c3ccc(NC(=O)[C@@H]4CCCN4C(=O)OCc4ccccc4)cc3)S/C2=N\c2ccc(N3CCOCC3)cc2)cn1` (stereo partly drawn) [Compound 70]: the EC50 is less than 0.1 µM.

For `C[C@H](NC(=O)Cc1ccccc1)C(=O)Nc1ccc(C2S/C(=N\c3ccc(N4CCOCC4)cc3)N(Cc3ccccn3)C2=O)cc1` (stereo partly drawn) [Compound 99], the EC50 is less than 0.1 µM.

As for `N#Cc1cccc(/N=C2\SC(c3ccc(NC(=O)[C@@H]4CCCN4C(=O)OCc4ccccc4)cc3)C(=O)N2Cc2ccco2)c1` (stereo partly drawn) [Compound 47], the EC50 is less than 0.1 µM.

With `C[C@H](NC(=O)OCc1ccccc1)C(=O)Nc1ccc(C2S/C(=N\c3cccc(F)c3)N(CCOc3ccccc3)C2=O)cc1` (stereo partly drawn) [Compound 21], the half-maximal effective concentration (EC50) was 1 to 5 µM.

As for `COc1ccc(/N=C2\SC(c3ccc(NC(=O)[C@@H]4CCCN4C(=O)OCc4ccccc4)cc3)C(=O)N2Cc2ccco2)cc1F` (stereo partly drawn) [Compound 65], the EC50 is less than 0.1 µM.

`Cc1cnc(CN2C(=O)C(c3ccc(NC(=O)[C@@H]4CCCN4C(=O)OCc4ccccc4)cc3)S/C2=N\c2cccc(F)c2)cn1` (stereo partly drawn) [Compound 5]: the half-maximal effective concentration (EC50) was less than 0.1 µM.

Turning to `Cc1cc(F)ccc1/N=C1\SC(c2ccc(NC(=O)[C@H](C)NC(=O)OCc3ccccc3)cc2)C(=O)N1Cc1ccco1` (stereo partly drawn) [Compound 58], the EC50 was 1 to 5 µM.

As to `C[C@H](NC(=O)OCc1ccccc1)C(=O)Nc1ccc(C2SC3=Nc4ccccc4CN3C2=O)cc1` (stereo partly drawn) [Compound 138], the EC50 was in the range of 1 to 5 µM.

Take `COc1ccc(CC(=O)N2CCC[C@H]2C(=O)Nc2ccc(C3S/C(=N\c4ccc(N5CCOCC5)cc4)N(Cc4ccccn4)C3=O)cc2)cc1` (stereo partly drawn) [Compound 106]: the EC50 lay in the range of 0.1 to 1 µM.

Consider `O=C(Nc1ccc(C2S/C(=N\c3cccc(F)c3)N(Cc3ccccn3)C2=O)cc1)[C@@H]1CCCN1C(=O)OCc1ccccc1` (stereo partly drawn) [Compound 3], for which the EC50 is less than 0.1 µM.

Regarding `O=C(C(=O)N1CCC[C@H]1C(=O)Nc1ccc(C2S/C(=N\c3ccc(N4CCOCC4)cc3)N(Cc3ccccn3)C2=O)cc1)c1ccccc1` (stereo partly drawn) [Compound 119], the EC50 is less than 0.1 µM.

As for `COc1cccc(CN2C(=O)C(c3ccc(NC(=O)[C@H](C)NC(=O)OCc4ccccc4)cc3)S/C2=N\c2cccc(F)c2)c1` (stereo partly drawn) [Compound 25], the half-maximal effective concentration (EC50) is 0.1 to 1 µM.

Consider `C[C@H](NC(=O)OCc1ccccc1)C(=O)Nc1ccc(C2S/C(=N\c3cccc(F)c3)N(CCc3cccs3)C2=O)cc1` (stereo partly drawn) [Compound 24], for which the EC50 was in the range of 0.1 to 1 µM.

Take `COc1cccc(CN2C(=O)C(c3ccc(NC(=O)[C@@H]4CCCN4C(=O)OCc4ccccc4)cc3)S/C2=N\c2cccc(F)c2)c1` (stereo partly drawn) [Compound 13]: the EC50 is 0.1 to 1 µM.

As to `CC(C)/N=C1\SC(c2ccc(NC(=O)[C@H](C)NC(=O)[C@@H](O)c3ccccc3)cc2)C(=O)N1Cc1ccccn1` (stereo partly drawn) [Compound 120], the EC50 was less than 0.1 µM.

As for `C[C@H](NC(=O)c1ccccc1)C(=O)Nc1ccc(C2S/C(=N\c3cccc(F)c3)N(Cc3ccco3)C2=O)cc1` (stereo partly drawn) [Compound 126], the EC50 is 1 to 5 µM.

Turning to `O=C(Nc1ccc(C2S/C(=N\c3cccc(F)c3)N(Cc3ccco3)C2=O)cc1)[C@@H]1CCCN1C(=O)Cc1ccc(Cl)cc1` (stereo partly drawn) [Compound 128], the EC50 lay in the range of 0.1 to 1 µM.

For the compound `C[C@H](NC(=O)OCc1ccccc1)C(=O)Nc1ccc(C2S/C(=N\c3cccc(F)c3)N(Cc3ccc(F)c(F)c3F)C2=O)cc1` (stereo partly drawn) [Compound 29], the EC50 is 1 to 5 µM.

On to `O=C(Nc1ccc(C2S/C(=N\c3cccc(F)c3)N(Cc3ccco3)C2=O)cc1)[C@@H]1CCCN1C(=O)Cc1ccncc1` (stereo partly drawn) [Compound 129], for which the concentration giving a half-maximal response (EC50) was in the range of 0.1 to 1 µM.

As for `O=C(Nc1ccc(C2S/C(=N\c3ccc(F)c(Cl)c3)N(Cc3ccco3)C2=O)cc1)[C@@H]1CCCN1C(=O)OCc1ccccc1` (stereo partly drawn) [Compound 51], the EC50 was 1 to 5 µM.

With `O=C(Nc1ccc(C2S/C(=N\c3cccc(F)c3)N(Cc3ccco3)C2=O)cc1)[C@@H]1CCCN1C(=O)OCc1ccccc1` (stereo partly drawn) [Compound 2, 2S-{4-[2-(3-fluorophenylimino)-3-furan-2ylmethyl-4-oxo-thiazolidin-5yl]-phenylcarbamoyl}pyrrolidine-1-carboxylic acid benzyl ester], the EC50 is more than 5 µM.

Regarding `COc1ccc(C(F)(F)F)cc1/N=C1\SC(c2ccc(NC(=O)[C@@H]3CCCN3C(=O)OCc3ccccc3)cc2)C(=O)N1Cc1ccco1` (stereo partly drawn) [Compound 49], the EC50 was in the range of 0.1 to 1 µM.

As for `CCC(C)c1ccc(/N=C2\SC(c3ccc(NC(=O)[C@@H]4CCCN4C(=O)OCc4ccccc4)cc3)C(=O)N2Cc2ccco2)cc1` (stereo partly drawn) [Compound 45], the concentration giving a half-maximal response (EC50) was 0.1 to 1 µM.

On to `C[C@H](NC(=O)OCc1ccccc1)C(=O)Nc1cccc(C2S/C(=N\c3cccc(F)c3)N(Cc3ccco3)C2=O)c1` (stereo partly drawn) [Compound 32], for which the EC50 lay within 1 to 5 µM.

On to `Cc1cnc(CN2C(=O)C(c3ccc(NC(=O)[C@H](C)NC(=O)OCc4ccccc4)cc3)S/C2=N\c2ccc(N3CCOCC3)cc2)cn1` (stereo partly drawn) [Compound 69], for which the EC50 is less than 0.1 µM.

In the case of `Cc1ccc(/N=C2\SC(c3ccc(NC(=O)[C@H](C)NC(=O)OCc4ccccc4)cc3)C(=O)N2Cc2ccco2)c(Cl)c1` (stereo partly drawn) [Compound 41], the EC50 is 1 to 5 µM.

As for `C[C@H](C(=O)N1CCC[C@H]1C(=O)Nc1ccc(C2S/C(=N\c3ccc(N4CCOCC4)cc3)N(Cc3ccccn3)C2=O)cc1)c1ccccc1` (stereo partly drawn) [Compound 114], the EC50 is less than 0.1 µM.

As to `CO[C@H](C(=O)N1CCC[C@H]1C(=O)Nc1ccc(C2S/C(=N\c3ccc(N4CCOCC4)cc3)N(Cc3ccccn3)C2=O)cc1)c1ccccc1` (stereo partly drawn) [Compound 117], the EC50 is less than 0.1 µM.

Regarding `O=C(Nc1ccc(C2S/C(=N\c3ccc(N4CCOCC4)cc3)N(Cc3ccccn3)C2=O)cc1)[C@@H]1CCC(=O)N1C(=O)OCc1ccccc1` (stereo partly drawn) [Compound 88], the EC50 was less than 0.1 µM.

As for `O=C(Nc1ccc(C2S/C(=N\c3ccc(N4CCOCC4)cc3)N(Cc3ccccn3)C2=O)cc1)[C@@H]1CCC(=O)N1C(=O)C(c1ccccc1)c1ccccc1` (stereo partly drawn) [Compound 113], the EC50 lay in the range of 0.1 to 1 µM.

As for `C[C@H](NC(=O)OCc1ccccc1)C(=O)Nc1ccc(C2S/C(=N\c3cccc(Cl)c3)N(Cc3ccco3)C2=O)cc1` (stereo partly drawn) [Compound 54], the EC50 lay within 0.1 to 1 µM.

On to `C[C@H](NC(=O)Nc1ccccc1)C(=O)Nc1ccc(C2S/C(=N\c3cccc(F)c3)N(Cc3ccco3)C2=O)cc1` (stereo partly drawn) [Compound 134], for which the EC50 fell in the range of 1 to 5 µM.

Regarding `C[C@H](NC(=O)CCc1ccccc1)C(=O)Nc1ccc(C2S/C(=N\c3cccc(F)c3)N(Cc3ccco3)C2=O)cc1` (stereo partly drawn) [Compound 125], the EC50 fell in the range of 1 to 5 µM.

With `Cc1cnc(CN2C(=O)C(c3ccc(NC(=O)[C@@H]4CCCN4C(=O)Cc4ccccc4)cc3)S/C2=N\c2ccc(N3CCOCC3)cc2)cn1` (stereo partly drawn) [Compound 95], the EC50 was less than 0.1 µM.

For the compound `CC(C)(C)O[C@@H]1C[C@@H](C(=O)Nc2ccc(C3S/C(=N\c4ccc(N5CCOCC5)cc4)N(Cc4ccccn4)C3=O)cc2)N(C(=O)OCc2ccccc2)C1` (stereo partly drawn) [Compound 79], the EC50 was in the range of 1 to 5 µM.

With `C[C@H](NC(=O)OCc1ccccc1)C(=O)Nc1ccc(C2S/C(=N\c3cccc(F)c3)N(Cc3ccccn3)C2=O)cc1` (stereo partly drawn) [Compound 4], the EC50 was less than 0.1 µM.

For `C[C@H](NC(=O)C(c1ccccc1)c1ccccc1)C(=O)Nc1ccc(C2S/C(=N\c3ccc(N4CCOCC4)cc3)N(Cc3ccccn3)C2=O)cc1` (stereo partly drawn) [Compound 112], the EC50 was less than 0.1 µM.

On to `C[C@H](NC(=O)OCc1ccccc1)C(=O)Nc1ccc(C2S/C(=N\c3ccc(F)c(C(F)(F)F)c3)N(Cc3ccco3)C2=O)cc1` (stereo partly drawn) [Compound 68], for which the EC50 lay within 1 to 5 µM.

As to `C[C@@H](C(=O)N1CCC[C@H]1C(=O)Nc1ccc(C2S/C(=N\c3ccc(N4CCOCC4)cc3)N(Cc3ccccn3)C2=O)cc1)c1ccccc1` (stereo partly drawn) [Compound 115], the EC50 is less than 0.1 µM.

On to `O=C(Nc1ccc(C2S/C(=N\c3ccc(N4CCOCC4)cc3)N(Cc3ccccn3)C2=O)cc1)[C@@H]1CCCN1S(=O)(=O)Cc1ccccc1` (stereo partly drawn) [Compound 132], for which the 50% effective concentration (EC50) lay in the range of 1 to 5 µM.

On to `COc1ccc(CCN2C(=O)C(c3ccc(NC(=O)[C@@H]4CCCN4C(=O)OCc4ccccc4)cc3)S/C2=N\c2cccc(F)c2)cc1OC` (stereo partly drawn) [Compound 30], for which the EC50 is 1 to 5 µM.

`O=C(Nc1ccc(C2S/C(=N\c3ccc(N4CCOCC4)cc3)N(Cc3ccccn3)C2=O)cc1)[C@@H]1CCCN1C(=O)Cc1ccccc1` (stereo partly drawn) [Compound 98]: the EC50 was less than 0.1 µM.

For `C[C@H](NC(=O)OCc1ccccc1)C(=O)Nc1ccc(C2S/C(=N\c3ccc(C(F)(F)F)cc3)N(Cc3ccco3)C2=O)cc1` (stereo partly drawn) [Compound 62], the EC50 lay in the range of 1 to 5 µM.

Take `CCc1cccc(/N=C2\SC(c3ccc(NC(=O)[C@@H]4CCCN4C(=O)OCc4ccccc4)cc3)C(=O)N2Cc2ccco2)c1` (stereo partly drawn) [Compound 36]: the EC50 lay in the range of 1 to 5 µM.

In the case of `O=C(Nc1ccc(C2S/C(=N\c3ccc(N4CCOCC4)cc3)N(Cc3ccccn3)C2=O)cc1)[C@@H]1CCCN1C(=O)C1(c2ccc(F)cc2)CCCC1` (stereo partly drawn) [Compound 105], the 50% effective concentration (EC50) fell in the range of 0.1 to 1 µM.

On to `O=C(Nc1ccc(C2S/C(=N\c3ccc(F)c(C(F)(F)F)c3)N(Cc3ccco3)C2=O)cc1)[C@@H]1CCCN1C(=O)OCc1ccccc1` (stereo partly drawn) [Compound 67], for which the EC50 was in the range of 1 to 5 µM.

`CO[C@@H](C(=O)N1CCC[C@H]1C(=O)Nc1ccc(C2S/C(=N\c3ccc(N4CCOCC4)cc3)N(Cc3ccccn3)C2=O)cc1)c1ccccc1` (stereo partly drawn) [Compound 116]: the EC50 is less than 0.1 µM.
